Results published in ChEMBL document CHEMBL5338828, “Structure-Activity Relationships of Bis-Intercalating Peptides and Their Application as Antibody-Drug Conjugate Payloads” (J Med Chem, 2023).

Assays:
[1] = Retention time of the compound by HPLC analysis; assay type: physicochemical
[2] = Binding affinity to biotinylated hairpin DNA (unknown origin) assessed as binding constant by SPR analysis
[3] = system: Clupeidae; assay: Binding affinity to Herring sperm DNA assessed as melting temperature by differential scanning calorimetric analysis

Row | Compound | Retention_time [1] [min] | Kd [2] [nM] | Tm [3] [°C]
1 | CCN1CC(=O)N(C)[C@@H](C(C)C)C(=O)NC[C@@H](NC(=O)c2nc3ccccc3cc2O)C(=O)N2CCCC[C@H]2C(=O)NCC(=O)N(CC)CC(=O)N(C)[C@@H](C(C)C)C(=O)NC[C@@H](NC(=O)c2nc3ccccc3cc2O)C(=O)N2CCCC[C@H]2C(=O)NCC1=O | 18.5 | 300 | –
2 | CC(C)[C@H]1C(=O)NC[C@@H](NC(=O)c2nc3ccccc3cc2O)C(=O)N2CCCC[C@H]2C(=O)NCC(=O)N(C)CC(=O)N(C)[C@@H]([C@H](C)OC(C)(C)C)C(=O)NC[C@@H](NC(=O)c2nc3ccccc3cc2O)C(=O)N2CCCC[C@H]2C(=O)NCC(=O)N(C)CC(=O)N1C | 18.4 | – | 88
3 | CC(C)[C@H]1COC[C@@H](NC(=O)c2nc3ccccc3cc2O)C(=O)N2CCCC[C@H]2C(=O)NCC(=O)N(C)CC(=O)N(C)[C@@H](C(C)C)COC[C@@H](NC(=O)c2nc3ccccc3cc2O)C(=O)N2CCCC[C@H]2C(=O)NCC(=O)N(C)CC(=O)N1C | 18.2 | – | 91
4 | CC(C)[C@H]1C(=O)NC[C@@H](NC(=O)c2nc3ccccc3cc2O)C(=O)N2CCCC[C@H]2C(=O)NCC(=O)N(C)CC(=O)N(C)C2(CCC2)C(=O)NC[C@@H](NC(=O)c2nc3ccccc3cc2O)C(=O)N2CCCC[C@H]2C(=O)NCC(=O)N(C)CC(=O)N1C | 17 | 300 | –
5 | CC(C)[C@H]1C(=O)NC[C@@H](NC(=O)c2nc3ccccc3cc2O)C(=O)N2CCCC[C@H]2C(=O)NCC(=O)N(C)CC(=O)N2CCCCC[C@H]2C(=O)NC[C@@H](NC(=O)c2nc3ccccc3cc2O)C(=O)N2CCCC[C@H]2C(=O)NCC(=O)N(C)CC(=O)N1C | 16.4 | 700 | 88
6 | CC[C@H](C)[C@H]1COC[C@@H](NC(=O)c2nc3ccccc3cc2O)C(=O)N2CCCC[C@H]2C(=O)NCC(=O)N(C)CC(=O)N(C)[C@@H](C(C)C)C(=O)NC[C@@H](NC(=O)c2nc3ccccc3cc2O)C(=O)N2CCCC[C@H]2C(=O)NCC(=O)N(C)CC(=O)N1C | 19.4 | 50 | –
7 | C[C@H]1NC(=O)[C@@H]2CCCCN2C(=O)CN(C)C(=O)CNC(=O)[C@@H]2CCCCN2C(=O)[C@H](NC(=O)c2nc3ccccc3cc2O)[C@@H](C)NC(=O)[C@@H]2CCCCN2C(=O)CN(C)C(=O)CNC(=O)[C@@H]2CCCCN2C(=O)[C@@H]1NC(=O)c1nc2ccccc2cc1O | 16.7 | 9 | –
8 | CC(C)[C@H]1C(=O)N[C@H](C)[C@@H](NC(=O)c2nc3ccccc3cc2O)C(=O)N2CCCC[C@H]2C(=O)NCC(=O)N(C)CC(=O)N(C)[C@@H](C(C)C)C(=O)N[C@H](C)[C@@H](NC(=O)c2nc3ccccc3cc2O)C(=O)N2CCCC[C@H]2C(=O)NCC(=O)N(C)CC(=O)N1C | 17.6 | – | 87
9 | O=C(N[C@@H]1CNC(=O)[C@@H]2CCCCN2C(=O)COCCNC(=O)[C@@H]2CCCCN2C(=O)[C@H](NC(=O)c2nc3ccccc3cc2O)CNC(=O)[C@@H]2CCCCN2C(=O)COCCNC(=O)[C@@H]2CCCCN2C1=O)c1nc2ccccc2cc1O | 16.1 | – | 68
10 | CC[C@@H](C)[C@H]1C(=O)NC[C@@H](NC(=O)c2nc3ccc(Br)cc3cc2O)C(=O)N2CCCC[C@H]2C(=O)NCC(=O)N(C)CC(=O)N(C)[C@@H]([C@H](C)CC)C(=O)NC[C@@H](NC(=O)c2nc3ccc(Br)cc3cc2O)C(=O)N2CCCC[C@H]2C(=O)NCC(=O)N(C)CC(=O)N1C | 21 | – | –
11 | CN1CC(=O)N2CCCCC[C@H]2C(=O)NC[C@@H](NC(=O)c2nc3ccccc3cc2O)C(=O)N2CCCC[C@H]2C(=O)NCC(=O)N(C)CC(=O)N2CCCCC[C@H]2C(=O)NC[C@@H](NC(=O)c2nc3ccccc3cc2O)C(=O)N2CCCC[C@H]2C(=O)NCC1=O | 15.8 | 770 | –
12 | CC[C@H](C)[C@H]1C(=O)N[C@H](C)[C@@H](NC(=O)c2nc3ccccc3cc2O)C(=O)N2CCCC[C@H]2C(=O)NCC(=O)N(C)CC(=O)N(C)[C@@H]([C@@H](C)CC)C(=O)N[C@H](C)[C@@H](NC(=O)c2nc3ccccc3cc2O)C(=O)N2CCCC[C@H]2C(=O)NCC(=O)N(C)CC(=O)N1C | 20.9 | – | 85
13 | CC(C)[C@H]1C(=O)NC[C@@H](NC(=O)c2nc3ccccc3cc2O)C(=O)N2CCCC[C@H]2C(=O)NCCOCC(=O)N(C)[C@@H](C(C)C)C(=O)NC[C@@H](NC(=O)c2nc3ccccc3cc2O)C(=O)N2CCCC[C@H]2C(=O)NCCOCC(=O)N1C | 16 | – | 68
14 | CC(C)[C@H]1C(=O)NC[C@@H](NC(=O)c2nc3ccccc3cc2O)C(=O)N2CCCC[C@H]2C(=O)NCC(=O)N(C)CC(=O)N(C)C(C)(C)C(=O)NC[C@@H](NC(=O)c2nc3ccccc3cc2O)C(=O)N2CCCC[C@H]2C(=O)NCC(=O)N(C)CC(=O)N1C | 15.8 | 700 | –
15 | CC(C)[C@H]1C(=O)NC[C@@H](NC(=O)c2nc3ccccc3cc2O)C(=O)N2CCCC[C@H]2C(=O)NCC(=O)N(C)CC(=O)N(C)[C@@H]([C@@H](C)O)C(=O)NC[C@@H](NC(=O)c2nc3ccccc3cc2O)C(=O)N2CCCC[C@H]2C(=O)NCC(=O)N(C)CC(=O)N1C | 10.6 | – | 86
16 | CC(C)[C@H]1C(=O)N(C)C[C@@H](NC(=O)c2nc3ccccc3cc2O)C(=O)N2CCCC[C@H]2C(=O)NCC(=O)N(C)CC(=O)N(C)[C@@H](C(C)C)C(=O)N(C)C[C@@H](NC(=O)c2nc3ccccc3cc2O)C(=O)N2CCCC[C@H]2C(=O)NCC(=O)N(C)CC(=O)N1C | 17.7 | – | 88
17 | CC(C)[C@H]1C(=O)NC[C@@H](NC(=O)c2nc3ccccc3cc2O)C(=O)N2CCCC[C@H]2C(=O)NCC(=O)N(C)CC(=O)N(C)[C@@H](c2ccccc2)C(=O)NC[C@@H](NC(=O)c2nc3ccccc3cc2O)C(=O)N2CCCC[C@H]2C(=O)NCC(=O)N(C)CC(=O)N1C | 17.2 | 1000 | –
18 | CC(C)[C@H]1C(=O)NC[C@@H](NC(=O)c2nc3ccccc3cc2O)C(=O)N2CCCC[C@H]2C(=O)NCC(=O)N(C)CC(=O)N(C)C2(CC2)C(=O)NC[C@@H](NC(=O)c2nc3ccccc3cc2O)C(=O)N2CCCC[C@H]2C(=O)NCC(=O)N(C)CC(=O)N1C | 15.4 | 700 | –
19 | CCN1C(=O)CN(C)C(=O)CNC(=O)[C@@H]2CCCCN2C(=O)[C@H](NC(=O)c2nc3ccccc3cc2O)CNC(=O)[C@H](C(C)C)N(CC)C(=O)CN(C)C(=O)CNC(=O)[C@@H]2CCCCN2C(=O)[C@H](NC(=O)c2nc3ccccc3cc2O)CNC(=O)[C@@H]1C(C)C | 17.9 | 500 | –
20 | CC(C)[C@H]1C(=O)O[C@H](C)[C@@H](NC(=O)c2nc3ccccc3cc2O)C(=O)N2CCCC[C@H]2C(=O)NCC(=O)N(C)CC(=O)N(C)[C@@H](C(C)C)C(=O)O[C@H](C)[C@@H](NC(=O)c2nc3ccccc3cc2O)C(=O)N2CCCC[C@H]2C(=O)NCC(=O)N(C)CC(=O)N1C | 21.6 | – | 85
21 | CC(C)[C@@H]1NC(=O)CN(C)C(=O)CNC(=O)[C@@H]2CCCCN2C(=O)[C@H](NC(=O)c2nc3ccccc3cc2O)CNC(=O)[C@H](C(C)C)NC(=O)CN(C)C(=O)CNC(=O)[C@@H]2CCCCN2C(=O)[C@H](NC(=O)c2nc3ccccc3cc2O)CNC1=O | 14.6 | 9000 | –
